Results published in patent publication US20100256147A1, “BIARYL ACETAMIDE DERIVATIVES AS MODULATORS OF THE KINASE CASCADE FOR THE TREATMENT OF HEARING LOSS, OSTEOPOROSIS AND CELL PROLIFERATION DISORDERS” (priority 2007, published 2010).
Each block holds one compound with its values, some of them ahead of it.

Key:
Assay type in all cases: cell-based
[1] = test system: 786-O; test: Tumor growth inhibition, 786-O; conditions: Homo sapiens, 786-0, read-out: Dasatinib GI50, renal cell adenocarcinoma
[2] = test system: PLC/PRF/5; test: MTT growth inhibition, PLC/PRF/5; conditions: Homo sapiens, 8.0×10^3 cells/wells, 1.5% FBS, 78 Hr, normalized response data
Description: (§1) Samples of the test compounds are formulated in 100% DMSO to obtain 20 mM stock solutions; stored @ 4° C. The IC50s and IC80s are determined as described below. Huh7, WRL-68, PLC/PRF/5, Hep 3B, and Hep G2 human cancer lines are routinely cultured and maintained in a basal medium containing 2% FBS @ 37° C., 5% CO2. Cells are seeded @ 4.0×10^3/190 μl and 8.0×10^3/190 μl per well of a 96-well plate. The assay medium is basal medium/1.5% FBS. […] The test article dilutions are prepared as follows: 20 mM stock solution samples are diluted serially in basal medium/1.5% FBS using 1:3 dilutions, yielding 20× concentrations; 131 μM to 0.24 nM range. 10 μL of 20× dilutions are added to the appropriate wells (n=3) containing 190 μL cancer cell line; 6561 nM to 0.012 nM range of final concentrations. Vehicle control contains cells, no sample. Medium control contains cells, no sample, 0.03% DMSO (highest DMSO concentration present in samples). The treated cells are incubated for 72 hours at 37° C., 5% CO2. On day 3, 10 μL MTT (5 mg/mL) are added to each well. Cells are incubated in the presence of MTT for 4 hours @ 37° C., 5% CO2. 90 μL 10% SDS(+HCl) is added to each well to lyse cells and solubilize formazan.

[3] = test system: Caki-2; test: Tumor growth inhibition, Caki-2; conditions: Homo sapiens, read-out: Dasatinib GI50; Caki-2, clear cell carcinoma
[4] = test system: Hep 3B; test: MTT growth inhibition, Hep 3B; conditions: Homo sapiens, Hep3B, 8.0×10^3 cells/wells, 1.5% FBS, 78 Hr, normalized response data
Description: as §1

[5] = test system: ACHN; test: Tumor growth inhibition, ACHN; conditions: Homo sapiens, read-out: Dasatinib GI50, renal cell adenocarcinoma
[6] = test system: HuH7; test: MTT growth inhibition, HuH7; conditions: Homo sapiens, Huh-7, 8.0×10^3 cells/wells, 1.5% FBS, 78 Hr, normalized response data
Description: as §1, with “formazan. […] OD570 measurements are taken, e.g., using BioTek Synergy HT multiplatform microplate reader. Growth inhibition curves IC50s and IC80s are determined using GraphPad Prism 5 statistical software.” for “formazan.”

[7] = test system: 769-P; test: Tumor growth inhibition, 769-P; conditions: Homo sapiens, read-out: Dasatinib GI50, renal cell adenocarcinoma
[8] = test system: Ba/F3-JAK2; test: Ba/F3-JAK2 cell growth inhibition; conditions: Ba/F3-JAK2 cells
[9] = test system: c-Src527F/NIH 3T3; test: BrdU cell growth inhibition, c-Src527F/NIH 3T3; conditions: Mus musculus, NIH3T3; c-Src527F/NIH 3T3 cells; read-out: c-Src527F/NIH 3T3 GI 50
Description: (§2) The GI50s for the compounds of the invention is assayed as described herein.
The c-Src 3T3 is a mouse fibroblast NIH 3T3 normal cell line that has been transfected with a point-mutant of human c-Src wherein tyrosine 527 has been converted to a phenylalanine. This mutation results in “constitutively active” c-Src because phosphorylation on tyrosine 527 results in auto-inhibition of Src by having it fold back on its own SH2 domain. With a Phe there, this phosphorylation can't occur and therefore auto-inhibition can't occur. Thus, the always fully active mutant Src then converts the normal mouse fibroblasts into rapidly growing tumor cells. […]
In the BrdU Assay for cell growth inhibition, quantitation of cell proliferation is based on the measurement of BrdU incorporation during DNA synthesis. […]
The growth inhibition (G1) is determined from the formula G1=(T0−Tr×100/T0−CONn) where T0 is the BrdU growth of untreated cells at time “0”, Tn, is the BrdU growth of treated cells at day “n” and CONn is the control BrdU growth of control cells at day “n”. […]
(§3) Seeded 96 well plates are allowed to attach overnight for 18-24 hours, either at 37° C. and 5% CO2 for HT-29 or at 37° C. and 10% CO2 for c-Src 3T3. Approx 18-24 hours after seeding, the initial growth of cells (T0) is determined for untreated cells using the BrdU assay. […] Plates are assayed for BrdU and the data is analyzed as above for GI50.

[10] = test system: HT29; test: BrdU cell growth inhibition, HT29; conditions: Homo sapiens, HT-29; HT29 cells; read-out: HT29 GI 50
Description: as §2
The HT29 cell line is a NCI standard human colon carcinoma cell line. HT-29 cells are obtained from ATCC at passage 125 and are used for inhibition studies between passage 126-151. HT29 cells are routinely cultured in McCoy's 5A medium supplemented with Fetal Bovine Serum (1.5% v/v) and L-glutamine (2 mM).
In the BrdU Assay for cell growth inhibition, quantitation of cell proliferation is based on the measurement of BrdU incorporation during DNA synthesis. The Cell Proliferation ELISA BrdU assay kit (colorimetric) is obtained from Roche Applied Science and performed as per vendor instructions.
The growth inhibition (G1) is determined from the formula G1=(T0−Tr×100/T0−CONn) where T0 is the BrdU growth of untreated cells at time “0”, Tn, is the BrdU growth of treated cells at day “n” and CONn is the control BrdU growth of control cells at day “n”. The GI50 is extrapolated and the data plotted using XL-Fit 4.0 software. […]
as §3

[11] = test system: Ba/F3-JAK3; test: Ba/F3-JAK3 cell growth inhibition; conditions: Ba/F3-JAK3 cells
[12] = test system: known Src protein substrates; test: Phosphorylation of Src substrates in HT29 cells; conditions: human colon cancer cells (HT29)
Description: (§4) Compounds of the invention may be Src signaling inhibitors that bind in the Src peptide substrate site. The activity of various compounds of the invention has been studied in c-Src (527F, constitutively active and transforming) transformed NIH3T3 cells and in human colon cancer cells (HT29).
(§5) HT29 (colon cancer) and c-Src527F/NIH-3T3 (Src transformed) cell lines are treated with a compound of the invention or with AstraZeneca's ATP competitive Src inhibitor AZ28 (KX2-328). AZ28 serves as a positive comparator to show what a validated Src inhibitor should do in these assays. After treatment with compound, cells are lysed, subjected to PAGE and probed with a battery of antibodies. […] In addition, off-target protein phosphorylation is also investigated. Further, induction of apoptosis is evaluated via Caspase 3 cleavage. Multiple doses of each compound are tested because the trends in response to increasing drug concentration are the most reliable indicator of activity.
(§6) A dose response curve is generated using the GI50 for the compounds of the invention in each of the two cell lines as the 1× concentration. […] The same range of multiples of the GI50 for AZ28 in these two cell lines are run as a comparison.

[13] = test system: known Src protein substrates; test: Phosphorylation of Src substrates in c-Src (527F) transformed NIH3T3 cells
Description: as §4, §5, §6

SMILES: Cc1nc(Nc2ncc(C(=O)Nc3c(C)cccc3Cl)s2)cc(N2CCN(CCO)CC2)n1 [Dasatinib]
- GI50 [1]: 2010 nM
- IC80 [2]: > 50000 nM
- GI50 [3]: 14.2 nM
- IC80 [4]: > 50000 nM
- GI50 [5]: 21.1 nM
- IC50 [6]: 1970 nM
- IC80 [6]: 7140 nM
- GI50 [7]: 46.3 nM

- IC50 [8]: 1320 nM
- GI50 [10]: 1230 nM
- IC50 [11]: 1200 nM
SMILES: O=C(Cc1ccc(-c2ccc(OCCN3CCOCC3)cc2F)nc1)NCCC1CCCC1
- GI50 [9]: 1160 nM

SMILES: O=C(Cc1ccc(-c2ccc(OCCN3CCOCC3)cc2)cn1)NCc1ccccc1 [KX2-391]
- phosphorylation level of known Src protein substrates [12]: reduce the phosphorylation level of known Src protein substrates in a dose-dependent fashion
- phosphorylation level of known Src protein substrates [13]: reduce the phosphorylation level of known Src protein substrates in a dose-dependent fashion

- IC50 [8]: 2080 nM
- GI50 [10]: 1060 nM
- IC50 [11]: 1290 nM
SMILES: C[C@@H](NC(=O)Cc1ccc(-c2ccc(OCCN3CCOCC3)cc2F)nc1)C1CCCCC1
- GI50 [9]: 1230 nM
